“And” between values parts separate entries of the source, which are not always exact repeats. Equal values may be shown once.
What was measured:
Assay in all cases: Kinase inhibitor specificity profiling (Reaction Biology Corporation)
Assay type in all cases: biochemical
Parameters in all cases: % Enzyme Activity (relative to DMSO controls): concentration or dose not given beside the values
[1] = target: T1, panel of 370 protein kinases (Homo sapiens, UniProt P51451); settings: 2 h, kinase BLK; read-out: % Enzyme Activity (relative to DMSO controls)
T1 construct: purchased Reaction Biology Corporation (assay service)

[2] = target: T2, panel of 370 protein kinases (Homo sapiens, UniProt Q9P286); settings: 2 h, kinase PAK5; read-out: % Enzyme Activity (relative to DMSO controls)
T2 construct: purchased Reaction Biology Corporation (assay service)

[3] = target: T3, panel of 370 protein kinases (Homo sapiens, UniProt P24941)
T3 construct: purchased Reaction Biology Corporation (assay service)

[4] = target: T4, panel of 370 protein kinases (Homo sapiens, UniProt P48729); settings: 2 h, kinase CK1a1; read-out: % Enzyme Activity (relative to DMSO controls)
T4 construct: purchased Reaction Biology Corporation (assay service)

[5] = target: T5, panel of 370 protein kinases (Homo sapiens, UniProt Q14012); settings: 2 h, kinase CAMK1a; read-out: % Enzyme Activity (relative to DMSO controls)
T5 construct: purchased Reaction Biology Corporation (assay service)

[6] = target: T6, panel of 370 protein kinases (Homo sapiens, UniProt P51957); settings: 2 h, kinase NEK4; read-out: % Enzyme Activity (relative to DMSO controls)
T6 construct: purchased Reaction Biology Corporation (assay service)

[7] = target: T7, panel of 370 protein kinases (Homo sapiens, UniProt P50613); settings: 2 h, kinase CDK7/cyclin H; read-out: % Enzyme Activity (relative to DMSO controls)
T7 construct: purchased Reaction Biology Corporation (assay service)

[8] = target: T8, panel of 370 protein kinases (Homo sapiens, UniProt P00533); settings: kinase EGFR
T8 construct: purchased Reaction Biology Corporation (assay service)

[9] = target: T9, panel of 370 protein kinases (Homo sapiens, UniProt Q9BZL6); settings: 2 h, kinase PKD2/PRKD2; read-out: % Enzyme Activity (relative to DMSO controls)
T9 construct: purchased Reaction Biology Corporation (assay service)

[10] = target: T10, panel of 370 protein kinases (Homo sapiens, UniProt O00311); settings: 2 h, read-out: % Enzyme Activity (relative to DMSO controls), kinase CDC7/DBF4
T10 construct: purchased Reaction Biology Corporation (assay service)

[11] = target: T11, panel of 370 protein kinases (Homo sapiens, UniProt Q9BXA6); settings: 2 h, kinase SSTK/TSSK6; read-out: % Enzyme Activity (relative to DMSO controls)
T11 construct: purchased Reaction Biology Corporation (assay service)

[12] = target: T12, panel of 370 protein kinases (Homo sapiens, UniProt Q9Y243); settings: 2 h, kinase AKT3; read-out: % Enzyme Activity (relative to DMSO controls)
T12 construct: purchased Reaction Biology Corporation (assay service)

[13] = target: T13, panel of 370 protein kinases (Homo sapiens, UniProt Q96RG2); settings: 2 h, kinase PASK; read-out: % Enzyme Activity (relative to DMSO controls)
T13 construct: purchased Reaction Biology Corporation (assay service)

[14] = target: T14, panel of 370 protein kinases (Homo sapiens, UniProt Q9H422); settings: 2 h, kinase HIPK3; read-out: % Enzyme Activity (relative to DMSO controls)
T14 construct: purchased Reaction Biology Corporation (assay service)

[15] = target: T15, panel of 370 protein kinases (Homo sapiens, UniProt Q00537); settings: 2 h, kinase CDK17/cyclin Y (PCTK2); read-out: % Enzyme Activity (relative to DMSO controls)
T15 construct: purchased Reaction Biology Corporation (assay service)

[16] = target: T16, panel of 370 protein kinases (Homo sapiens, UniProt Q13976); settings: 2 h, kinase PKG1a; read-out: % Enzyme Activity (relative to DMSO controls)
T16 construct: purchased Reaction Biology Corporation (assay service)

[17] = target: T17, panel of 370 protein kinases (Homo sapiens, UniProt P29322); settings: 2 h, kinase EPHA8; read-out: % Enzyme Activity (relative to DMSO controls)
T17 construct: purchased Reaction Biology Corporation (assay service)

[18] = target: T18, panel of 370 protein kinases (Homo sapiens, UniProt O75914); settings: 2 h, kinase PAK3; read-out: % Enzyme Activity (relative to DMSO controls)
T18 construct: purchased Reaction Biology Corporation (assay service)

[19] = target: T19, panel of 370 protein kinases (Homo sapiens, UniProt P29320); settings: 2 h, kinase EPHA3; read-out: % Enzyme Activity (relative to DMSO controls)
T19 construct: purchased Reaction Biology Corporation (assay service)

[20] = target: T20, panel of 370 protein kinases (Homo sapiens, UniProt Q9UL54); settings: 2 h, kinase TAOK2/TAO1; read-out: % Enzyme Activity (relative to DMSO controls)
T20 construct: purchased Reaction Biology Corporation (assay service)

[21] = target: T21, panel of 370 protein kinases (Homo sapiens, UniProt Q9HC98); settings: 2 h, kinase NEK6; read-out: % Enzyme Activity (relative to DMSO controls)
T21 construct: purchased Reaction Biology Corporation (assay service)

T8 sequence (P00533 25-1210): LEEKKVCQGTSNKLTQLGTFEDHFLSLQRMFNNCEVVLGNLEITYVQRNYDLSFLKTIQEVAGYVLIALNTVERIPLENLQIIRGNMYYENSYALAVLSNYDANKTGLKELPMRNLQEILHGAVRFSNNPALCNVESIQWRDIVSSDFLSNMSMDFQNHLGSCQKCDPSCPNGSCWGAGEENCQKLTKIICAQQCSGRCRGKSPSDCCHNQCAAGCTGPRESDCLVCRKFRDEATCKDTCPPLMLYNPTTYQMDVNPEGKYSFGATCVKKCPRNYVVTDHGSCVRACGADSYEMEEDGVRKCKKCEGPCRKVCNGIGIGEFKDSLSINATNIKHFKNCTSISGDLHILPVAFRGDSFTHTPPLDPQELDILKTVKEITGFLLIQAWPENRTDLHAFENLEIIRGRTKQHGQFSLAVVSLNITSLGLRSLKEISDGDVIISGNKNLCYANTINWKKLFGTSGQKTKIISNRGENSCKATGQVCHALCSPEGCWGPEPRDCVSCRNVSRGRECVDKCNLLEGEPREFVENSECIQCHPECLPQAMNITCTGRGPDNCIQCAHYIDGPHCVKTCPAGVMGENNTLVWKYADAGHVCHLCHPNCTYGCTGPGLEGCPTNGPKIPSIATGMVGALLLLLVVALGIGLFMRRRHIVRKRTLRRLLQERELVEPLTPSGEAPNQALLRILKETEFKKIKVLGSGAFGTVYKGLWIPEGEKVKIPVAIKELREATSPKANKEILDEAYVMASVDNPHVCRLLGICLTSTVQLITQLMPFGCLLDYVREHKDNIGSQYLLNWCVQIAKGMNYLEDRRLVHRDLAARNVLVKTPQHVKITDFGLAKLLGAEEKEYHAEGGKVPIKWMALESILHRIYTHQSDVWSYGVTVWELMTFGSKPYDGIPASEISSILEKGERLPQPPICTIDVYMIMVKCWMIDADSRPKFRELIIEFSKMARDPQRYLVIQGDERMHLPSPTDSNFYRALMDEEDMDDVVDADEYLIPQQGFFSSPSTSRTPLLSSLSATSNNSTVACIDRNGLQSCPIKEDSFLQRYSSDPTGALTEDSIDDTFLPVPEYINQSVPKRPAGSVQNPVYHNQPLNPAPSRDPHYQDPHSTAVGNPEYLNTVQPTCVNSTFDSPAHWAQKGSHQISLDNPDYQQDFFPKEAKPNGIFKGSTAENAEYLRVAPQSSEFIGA
T14 sequence (Q9H422 whole entry): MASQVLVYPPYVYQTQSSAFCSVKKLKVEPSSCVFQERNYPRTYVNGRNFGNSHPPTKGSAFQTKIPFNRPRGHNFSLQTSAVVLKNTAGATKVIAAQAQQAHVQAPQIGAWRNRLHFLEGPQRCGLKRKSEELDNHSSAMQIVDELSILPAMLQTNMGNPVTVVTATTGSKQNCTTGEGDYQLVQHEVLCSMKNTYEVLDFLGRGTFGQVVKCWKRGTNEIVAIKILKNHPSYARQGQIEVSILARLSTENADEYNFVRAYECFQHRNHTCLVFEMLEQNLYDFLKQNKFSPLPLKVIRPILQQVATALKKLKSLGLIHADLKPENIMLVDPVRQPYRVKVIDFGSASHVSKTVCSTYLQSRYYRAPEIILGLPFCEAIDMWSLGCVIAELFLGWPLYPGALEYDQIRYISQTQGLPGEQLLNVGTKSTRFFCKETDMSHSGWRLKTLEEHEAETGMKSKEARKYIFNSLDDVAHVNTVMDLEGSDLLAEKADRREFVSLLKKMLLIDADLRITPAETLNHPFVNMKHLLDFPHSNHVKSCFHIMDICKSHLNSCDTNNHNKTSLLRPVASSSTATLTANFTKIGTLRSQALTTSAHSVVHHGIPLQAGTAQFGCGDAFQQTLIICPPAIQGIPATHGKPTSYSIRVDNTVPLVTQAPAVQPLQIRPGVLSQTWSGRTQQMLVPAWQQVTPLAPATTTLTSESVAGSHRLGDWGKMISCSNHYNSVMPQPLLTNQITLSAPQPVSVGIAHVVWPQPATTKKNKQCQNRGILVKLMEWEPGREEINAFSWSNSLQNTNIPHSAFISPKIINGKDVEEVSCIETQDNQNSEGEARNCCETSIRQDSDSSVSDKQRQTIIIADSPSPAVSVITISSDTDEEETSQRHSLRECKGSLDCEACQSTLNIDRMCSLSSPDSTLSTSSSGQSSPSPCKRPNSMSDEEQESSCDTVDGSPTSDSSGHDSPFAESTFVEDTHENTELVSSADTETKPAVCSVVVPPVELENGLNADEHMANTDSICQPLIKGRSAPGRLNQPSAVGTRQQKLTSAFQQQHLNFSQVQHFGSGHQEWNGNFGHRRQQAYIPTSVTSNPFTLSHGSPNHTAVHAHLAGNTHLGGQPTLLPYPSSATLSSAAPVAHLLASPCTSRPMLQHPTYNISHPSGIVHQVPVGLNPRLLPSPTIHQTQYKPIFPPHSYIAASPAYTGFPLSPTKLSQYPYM
T5 sequence (Q14012 whole entry): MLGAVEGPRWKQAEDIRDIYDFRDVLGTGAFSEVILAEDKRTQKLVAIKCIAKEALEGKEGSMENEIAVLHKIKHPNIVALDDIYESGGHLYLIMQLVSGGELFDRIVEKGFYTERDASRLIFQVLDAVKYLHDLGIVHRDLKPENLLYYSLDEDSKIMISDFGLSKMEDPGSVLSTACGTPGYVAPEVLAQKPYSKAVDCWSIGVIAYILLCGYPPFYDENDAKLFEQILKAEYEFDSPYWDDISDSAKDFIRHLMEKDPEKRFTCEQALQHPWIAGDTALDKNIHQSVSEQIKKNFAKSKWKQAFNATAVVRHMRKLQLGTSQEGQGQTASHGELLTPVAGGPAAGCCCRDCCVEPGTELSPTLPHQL
T18 sequence (O75914 whole entry): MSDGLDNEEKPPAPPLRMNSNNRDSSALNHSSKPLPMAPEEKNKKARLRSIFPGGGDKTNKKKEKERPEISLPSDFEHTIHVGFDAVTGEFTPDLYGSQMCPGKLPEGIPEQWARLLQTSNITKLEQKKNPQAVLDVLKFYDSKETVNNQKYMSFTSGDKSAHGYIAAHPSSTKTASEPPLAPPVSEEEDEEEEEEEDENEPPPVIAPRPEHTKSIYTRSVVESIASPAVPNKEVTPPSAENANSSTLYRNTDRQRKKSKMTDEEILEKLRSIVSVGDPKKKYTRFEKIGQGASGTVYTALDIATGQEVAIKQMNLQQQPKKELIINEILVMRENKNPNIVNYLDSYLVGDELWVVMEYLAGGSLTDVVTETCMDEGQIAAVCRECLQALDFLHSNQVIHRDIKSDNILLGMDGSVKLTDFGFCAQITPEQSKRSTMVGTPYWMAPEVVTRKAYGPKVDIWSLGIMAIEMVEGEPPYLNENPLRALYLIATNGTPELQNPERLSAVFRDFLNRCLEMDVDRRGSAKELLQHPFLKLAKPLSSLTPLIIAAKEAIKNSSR
T13 sequence (Q96RG2 whole entry): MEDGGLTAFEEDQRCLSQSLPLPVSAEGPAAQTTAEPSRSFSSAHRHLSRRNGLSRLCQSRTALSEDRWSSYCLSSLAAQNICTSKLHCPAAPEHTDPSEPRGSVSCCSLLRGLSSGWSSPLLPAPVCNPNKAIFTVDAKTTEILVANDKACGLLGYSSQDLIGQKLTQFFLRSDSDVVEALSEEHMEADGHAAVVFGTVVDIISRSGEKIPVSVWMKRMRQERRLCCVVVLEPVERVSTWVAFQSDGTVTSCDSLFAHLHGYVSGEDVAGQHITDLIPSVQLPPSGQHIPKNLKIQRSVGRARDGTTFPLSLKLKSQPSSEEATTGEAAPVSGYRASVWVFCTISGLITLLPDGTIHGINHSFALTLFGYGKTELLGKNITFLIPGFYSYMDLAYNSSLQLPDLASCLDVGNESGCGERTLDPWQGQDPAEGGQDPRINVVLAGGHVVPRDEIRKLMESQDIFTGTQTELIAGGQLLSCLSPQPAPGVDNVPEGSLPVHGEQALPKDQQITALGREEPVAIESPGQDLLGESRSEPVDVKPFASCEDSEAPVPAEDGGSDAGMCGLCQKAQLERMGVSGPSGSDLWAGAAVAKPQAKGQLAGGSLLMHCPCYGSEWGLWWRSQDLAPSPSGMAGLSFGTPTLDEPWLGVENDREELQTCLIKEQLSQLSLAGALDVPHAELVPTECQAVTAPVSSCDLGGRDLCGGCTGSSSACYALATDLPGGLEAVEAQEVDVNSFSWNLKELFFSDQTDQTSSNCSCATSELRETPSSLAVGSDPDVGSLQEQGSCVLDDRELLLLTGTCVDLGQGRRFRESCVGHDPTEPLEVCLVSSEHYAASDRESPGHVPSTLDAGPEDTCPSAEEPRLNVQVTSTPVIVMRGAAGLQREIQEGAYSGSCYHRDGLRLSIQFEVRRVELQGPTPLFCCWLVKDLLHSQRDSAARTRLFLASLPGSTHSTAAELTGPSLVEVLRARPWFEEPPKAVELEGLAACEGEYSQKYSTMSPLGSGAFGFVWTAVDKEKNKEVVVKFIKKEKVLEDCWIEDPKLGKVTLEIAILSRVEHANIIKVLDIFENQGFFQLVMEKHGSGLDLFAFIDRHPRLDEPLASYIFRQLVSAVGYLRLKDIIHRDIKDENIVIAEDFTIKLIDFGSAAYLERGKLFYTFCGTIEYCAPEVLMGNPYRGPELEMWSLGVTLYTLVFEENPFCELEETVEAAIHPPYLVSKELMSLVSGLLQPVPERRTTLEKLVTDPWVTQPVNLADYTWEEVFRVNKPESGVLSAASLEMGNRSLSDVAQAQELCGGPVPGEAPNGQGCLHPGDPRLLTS
T11 sequence (Q9BXA6 whole entry): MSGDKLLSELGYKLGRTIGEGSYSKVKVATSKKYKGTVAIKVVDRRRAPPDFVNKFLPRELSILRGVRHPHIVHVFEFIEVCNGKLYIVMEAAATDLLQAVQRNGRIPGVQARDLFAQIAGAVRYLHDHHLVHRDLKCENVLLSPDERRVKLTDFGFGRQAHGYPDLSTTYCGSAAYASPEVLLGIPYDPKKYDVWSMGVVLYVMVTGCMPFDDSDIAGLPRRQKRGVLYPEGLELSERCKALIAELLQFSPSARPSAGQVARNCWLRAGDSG

## CCN1CCN(C(=O)c2ccc(Nc3ncc(F)c(-c4ccc5nc(N(C)C)sc5c4)n3)nc2)CC1 [YK-2-69]
[1]
  remaining activity at 1 µM: 100%
[2]
  remaining activity at 1 µM: 101%
[3]; kinase CDK2/CYCLIN A
  % Enzyme Activity (relative to DMSO controls): 90.79% and 87.87%
[3]; kinase CDK2/CYCLIN E
  % Enzyme Activity (relative to DMSO controls): 95.30% and 94.87%
[3]; kinase CDK2/Cyclin A1
  % Enzyme Activity (relative to DMSO controls): 80.25% and 75.26%
[3]; kinase CDK2/cyclin E2
  % Enzyme Activity (relative to DMSO controls): 104.31% and 100.73%
[3]; kinase CDK2/cyclin O
  % Enzyme Activity (relative to DMSO controls): 78.97% and 75.52%
[4]
  remaining activity at 1 µM: 82%
[5]
  remaining activity at 1 µM: 101%
[6]
  remaining activity at 1 µM: 112%
[7]
  remaining activity at 1 µM: 99.1%
[8]
  % Enzyme Activity (relative to DMSO controls): 109.51% and 108.13%
[9]
  remaining activity at 1 µM: 80.8%
[10]
  remaining activity at 1 µM: 121%
[11]
  remaining activity at 1 µM: 107%
[12]
  remaining activity at 1 µM: 88.2%
[13]
  remaining activity at 1 µM: 98.3%
[14]
  remaining activity at 1 µM: 49.6%
[15]
  remaining activity at 1 µM: 99.2%
[16]
  remaining activity at 1 µM: 92.2%
[17]
  remaining activity at 1 µM: 102%
[18]
  remaining activity at 1 µM: 160%
[19]
  remaining activity at 1 µM: 95.2%
[20]
  remaining activity at 1 µM: 97%
[21]
  remaining activity at 1 µM: 103%

Reference: PMC9133015 (Nature Communications, 2022)
